PubChem BioAssay (NCI)
Where “and” joins values, the source holds several entries; their conditions need not be identical. Equal values may be shown once.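 Dose response: 5 concentrations. Exposure: 48 h. Format: 96-well plates. Endpoint: linear interpolation; highest concentration if not reached. Definition used: TGI = concentration required for complete inhibition of growth.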

Legend:
Test in all cases: inhibition of tumour cell growth, NCI panel, 48 h
786-0 renal = tested on: 786-0 renal
LOX IMVI melanoma = tested on: LOX IMVI melanoma
OVCAR-8 ovarian = tested on: OVCAR-8 ovarian
TK-10 renal = tested on: TK-10 renal
SF-295 CNS = tested on: SF-295 CNS
MDA-MB-435 = tested on: MDA-MB-435
HOP-92 NSCLC = tested on: HOP-92 NSCLC
U251 CNS = tested on: U251 CNS
UACC-257 melanoma = tested on: UACC-257 melanoma
MOLT-4 leukemia = tested on: MOLT-4 leukemia
SF-539 CNS = tested on: SF-539 CNS

| SMILES | TGI (786-0 renal) | TGI (LOX IMVI melanoma) | TGI (OVCAR-8 ovarian) | TGI (TK-10 renal) | TGI (SF-295 CNS) | TGI (MDA-MB-435) | TGI (HOP-92 NSCLC) | TGI (U251 CNS) | TGI (UACC-257 melanoma) | TGI (MOLT-4 leukemia) | TGI (SF-539 CNS) |
| --- | --- | --- | --- | --- | --- | --- | --- | --- | --- | --- | --- |
| C=CCCC1(O)C(O)C(CO)O[C@H](O[C@@]2(CO)OC(CO)C(O)C2O)C1O (some centres undefined) | > 100 µM | > 100 µM | > 100 µM | > 100 µM | > 100 µM | > 100 µM | > 100 µM | > 100 µM | > 100 µM | > 100 µM | > 100 µM |
| O=C1Oc2ccccc2C1C/C(=N\Nc1ccccc1)c1ccccc1O (centres undefined) | > 100 µM | > 100 µM | > 100 µM | > 100 µM | > 100 µM | 76.2 µM | 78.8 µM | > 100 µM | 90.5 µM | 78.7 µM | > 100 µM |
| COc1ccc(/C=c2\c(=O)[nH]c3nc4ccccc4c(=O)n23)cc1 | > 100 µM | > 100 µM | > 100 µM | > 100 µM | > 100 µM | > 100 µM | > 100 µM | > 100 µM | > 100 µM | > 100 µM | > 100 µM |
| CC(=O)CCCCn1c(=O)c2c(nc(Br)n2C)n(C)c1=O | > 100 µM | > 100 µM | > 100 µM | > 100 µM | > 100 µM | > 100 µM | 31.7 µM | > 100 µM | > 100 µM | > 100 µM | > 100 µM |
| C[C@]12C=CC(=O)C=C1CC[C@@H]1[C@@H]2CC[C@@]2(C)[C@H]1CC[C@]2(O)C(N)=O | > 100 µM | > 100 µM | > 100 µM | > 100 µM | > 100 µM | > 100 µM | > 100 µM | > 100 µM | > 100 µM | > 100 µM | > 100 µM |
| Clc1ccc(Cl)c(N=Nc2cc3c4c(c2)CCN4CCC3)c1 | > 10 µM | > 10 µM | > 10 µM | > 10 µM | > 10 µM | > 10 µM | > 10 µM | > 10 µM | > 10 µM | > 10 µM | > 10 µM |
| O=C(O)c1nc2ccccc2nc1Nc1ccc(Cl)c(Cl)c1 | 63.9 µM | > 100 µM | > 100 µM | > 100 µM | 69.8 µM | > 100 µM | 59 µM | > 100 µM | > 100 µM | > 100 µM | 43.7 µM |
| COc1nc(N=P(c2ccccc2)(c2ccccc2)c2ccccc2)cc(=O)n1C | > 100 µM | > 100 µM | > 100 µM | > 100 µM | > 100 µM | > 100 µM | > 100 µM | > 100 µM | > 100 µM | > 100 µM | > 100 µM |
| CC1=CC(=O)CC2(C)CCC(C(C)CC(=O)CC(C)C)CC12OO (centres undefined) | 22.7 µM and 26 µM | 31.5 µM and 27.9 µM | 90.2 µM and 45.4 µM | 32.8 µM and 34.1 µM | 31 µM and 30 µM | 31.3 µM and 34.2 µM | 31 µM and 37 µM | 31.4 µM and 33.1 µM | 31.5 µM and 33 µM | 40.2 µM and 35.3 µM | 28.9 µM and 30 µM |
